For one compound, Kd and Tm results are on record in article PMC12700101 (2025).

The test system of assay [1] is Dopamine DBS Cy3(+T)–BHQ-1 Internal (DNA, aptamer) AAATACAACAAGAAAAAACTCTCGGGACGACGTACCAGTTTGAAGGTTCGTTCGCAGGTGTGGAGTGACGTCGTCCC
The experiment in a line: fluorescence strand-displacement titration. Particulars: 1x PBS, 2 mM MgCl2; apparent; pH 8.0, 25 °C; displaced 42-nt strand, internal BHQ-1, 4 eq.

Assay [2] concerns Dopamine DBS Cy3/Cy5 – No (position 3) (DNA, aptamer) AAATACAACAAGAAAAAACTCTCGGGACGACGACCAGTTTGAAGGTTCGTTCGCAGGTGTGGAGTGACGTCGTCCC
Nature of the assay: fluorescence strand-displacement titration. Particulars: 1x PBS, 2 mM MgCl2; apparent; pH 8.0, 25 °C; displaced 42-nt 3'-biotin strand without quencher; 565 nm readout.

Assay [3] deals with Dopamine DBS Cy3–BHQ-1 (Position 3) (DNA, aptamer) AAATACAACAAGAAAAAACTCTCGGGACGACGACCAGTTTGAAGGTTCGTTCGCAGGTGTGGAGTGACGTCGTCCC
The experiment in a line: fluorescence strand-displacement titration. Particulars: 1x PBS, 2 mM MgCl2; apparent; pH 8.0, 25 °C; displaced 42-nt strand, internal BHQ-1 (position 3), 4 eq.

Assay [4] concerns Dopamine DBS Cy3–BHQ-1 (Int.) (DNA, aptamer) AAATACAACAAGAAAAAACTCTCGGGACGACGACCAGTTTGAAGGTTCGTTCGCAGGTGTGGAGTGACGTCGTCCC
Nature of the assay: fluorescence strand-displacement titration. Particulars: 1x PBS, 2 mM MgCl2; apparent; pH 8.0, 25 °C; displaced 42-nt strand, internal BHQ-1, 4 eq.

The test system of assay [5] is Dopamine MAB FAM–BHQ-1 (DNA, aptamer) ACGCCAGTTTGAAGGTTCGTTCGCAGGTGTGGAGTGACGT
The experiment in a line: fluorescence melting. Particulars: 1x PBS, 2 mM MgCl2; derived from two Tm (44.8 ± 0, 37.7 ± 0.1); 50 µM dopamine, pH 8.0.

Assay [6] relates to Dopamine DBS FAM(+T)–BHQ-1 (Position 1) (DNA, aptamer, 6-FAM-dT (azide click) at 33) AAATACAACAAGAAAAAACTCTCGGGACGACGTACCAGTTTGAAGGTTCGTTCGCAGGTGTGGAGTGACGTCGTCCC
The experiment in a line: fluorescence strand-displacement titration. Particulars: 1x PBS, 2 mM MgCl2; apparent; pH 8.0, 25 °C; displaced 42-nt 5'-BHQ-1 strand, 4 eq.

The subject of assay [7] is Dopamine DBS BHQ-1–Cy3 (DNA, aptamer) AAATACAACAAGAAAAAACTCTCGGGACGACGACCAGTTTGAAGGTTCGTTCGCAGGTGTGGAGTGACGTCGTCCC
Nature of the assay: fluorescence strand-displacement titration. Particulars: 1x PBS, 2 mM MgCl2; apparent; pH 8.0, 25 °C; displaced 42-nt 5'-Cy3 strand, 1 eq.

Assay [8] has as its system Dopamine DBS Cy3(+T)/BHQ-1 (term.) (DNA, aptamer) AAATACAACAAGAAAAAACTCTCGGGACGACGTCCAGTTTGAAGGTTCGTTCGCAGGTGTGGAGTGACGTCGTCCC
Nature of the assay: fluorescence melting. Particulars: 1x PBS, 2 mM MgCl2; pH 8.0; 50 µM dopamine; derived from two Tm (50.8, 50.0); displacement strand 1:4.

The subject of assay [9] is Dopamine DBS Cy3(+T)–BHQ-1 (DNA, aptamer) AAATACAACAAGAAAAAACTCTCGGGACGACGTACCAGTTTGAAGGTTCGTTCGCAGGTGTGGAGTGACGTCGTCCC
The experiment in a line: fluorescence strand-displacement titration. Particulars: 1x PBS, 2 mM MgCl2; apparent; pH 8.0, 25 °C; displaced 42-nt 5'-BHQ-1 strand, 4 eq.

Assay [10] concerns Dopamine DBS Cy3(+T)/BHQ-1 (int.) (DNA, aptamer) AAATACAACAAGAAAAAACTCTCGGGACGACGTCCAGTTTGAAGGTTCGTTCGCAGGTGTGGAGTGACGTCGTCCC
The experiment in a line: fluorescence melting. Particulars: 1x PBS, 2 mM MgCl2; pH 8.0; 50 µM dopamine; derived from two Tm (50.3, 49.9); displacement strand 1:4.

For assay [11], the system named is Dopamine MAB FAM–Dab (DNA, aptamer, dabcyl-5-methyl-dC at 41 (3' end)) ACGCCAGTTTGAAGGTTCGTTCGCAGGTGTGGAGTGACGTC
Nature of the assay: fluorescence melting. Particulars: 1x PBS, 2 mM MgCl2; derived from two Tm (41.7 ± 0.2, 36.9 ± 0.1); 50 µM dopamine, pH 8.0.

The subject of assay [12] is Dopamine DBS Cy3–BHQ-1 (Position 2) (DNA, aptamer) AAATACAACAAGAAAAAACTCTCGGGACGACGACCAGTTTGAAGGTTCGTTCGCAGGTGTGGAGTGACGTCGTCCC
The experiment in a line: fluorescence strand-displacement titration. Particulars: 1x PBS, 2 mM MgCl2; apparent; pH 8.0, 25 °C; displaced 42-nt strand, internal BHQ-1 (position 2), 4 eq.

Assay [13] deals with Dopamine DBS FAM(+T)–BHQ-1 Terminal (DNA, aptamer, 6-FAM-dT (azide click) at 33) AAATACAACAAGAAAAAACTCTCGGGACGACGTACCAGTTTGAAGGTTCGTTCGCAGGTGTGGAGTGACGTCGTCCC
Nature of the assay: fluorescence strand-displacement titration. Particulars: 1x PBS, 2 mM MgCl2; apparent; pH 8.0, 25 °C; displaced 43-nt strand, 5'-BHQ-1 plus T, 4 eq.

For assay [14], the system named is Dopamine MAB BHQ-1–FAM (DNA, aptamer) ACGCCAGTTTGAAGGTTCGTTCGCAGGTGTGGAGTGACGT
The experiment in a line: fluorescence melting. Particulars: 1x PBS, 2 mM MgCl2; derived from two Tm (40.0 ± 0.2, 37.3 ± 0.1); 50 µM dopamine, pH 8.0.

Assay [15] concerns Dopamine DBS Cy3(+T)–BHQ-1 Terminal (DNA, aptamer) AAATACAACAAGAAAAAACTCTCGGGACGACGTACCAGTTTGAAGGTTCGTTCGCAGGTGTGGAGTGACGTCGTCCC
Nature of the assay: fluorescence strand-displacement titration. Particulars: 1x PBS, 2 mM MgCl2; apparent; pH 8.0, 25 °C; displaced 43-nt strand, 5'-BHQ-1 plus T, 4 eq.

For `NCCc1ccc(O)c(O)c1`, the Kd worked out at 17.3 ± 1.3 µM in [1]; 9.9 ± 3.6 µM in assay [2]; 2.3 ± 0.3 µM in assay [3]; 34.0 ± 3.3 µM in assay [4]; 6.1 ± 0.7 µM in assay [6]; 95.6 ± 6.7 µM in assay [7]. For the same compound, the Kd in assay [9] stood at 76.7 ± 5.5 µM; in assay [12], 2.2 ± 0.7 µM; in [13] it was 10.2 ± 1.0 µM; in [15], 40.1 ± 5.0 µM. For the same compound, the Tm in assay [5] is -7.1 °C; in [8], -0.8 °C; in assay [10], -0.4 °C; in assay [11], -4.8 °C; in assay [14] it was -2.7 °C.
